“And” between values parts separate entries of the source, which are not always exact repeats. Equal values may be shown once.
System: patients with active rheumatoid arthritis
Assay: Study A: EULAR response (moderate/good)
Format: in vivo, human
Details: for Good EULAR response (%) / Moderate EULAR response (%): LOCF
From the text: In one embodiment, the invention provides a method for determining the efficacy of a TNFα inhibitor, including a human TNFα antibody, for treating RA in a subject, using the EULAR response of a subject or patient population. European League Against Rheumatism (EULAR) Response Criteria uses a Disease Activity Score (DAS) for defining response. To be classified as responders, patients should have a significant change in DAS and also low current disease activity. Response is defined as both: (a) change in disease activity from baseline and (b) the level of disease activity reached during follow-up. Criteria used to define DAS include: Ritchie articular index, swollen joint count (44-joint count), erythrocyte sedimentation rate, and […]. A modified version of the DAS criteria, DAS28, uses a 28-joint count for swollen and tender joints. Response is defined as a combination of a significant change from baseline and the level of disease activity attained. Good response is defined as a significant decrease in DAS (>1.2) and a low level of disease activity (< or =2.4). Non-response is defined as a decrease < or =0.6, or a decrease >0.6 and < or =1.2 with an attained DAS >3.7. Any other scores are regarded as moderate responses. Thus, three categories are defined: good, moderate, and non-responders. For details of EULAR criteria see Van Gestel et al. (1996) 39(1):34-40, incorporated by reference herein.
The study design included a 12 week open label treatment period followed by a continuation period examining safety and efficacy. […] The main inclusion criteria for the study were the following: males and females ≧18 years; rheumatoid arthritis (RA; defined by ACR criteria) for ≧3 months; unsatisfactory response (or intolerance) to at least one prior DMARD; and patients with active RA (DAS28≧3.2). Baseline demographics and disease severity is shown below in Table 1:
Efficacy of adalimumab treatment was determined by examining signs and symptoms of the patients. Various assays were used to determine efficacy, including ACR response, EULAR response, TJC and SJC count, and DAS28.
The objective of this study was to evaluate the impact of prior biologic therapies, in particular TNF-antagonists etanercept (ETA) and infliximab (INF), on key efficacy parameters of adalimumab therapy in patients with long-standing RA in clinical practice. To evaluate the impact of prior biological therapies, patients with moderate to severe RA enrolled at 450 sites in 11 European countries plus Australia (Study A). Patients with moderate to severe RA and an inadequate response to prior DMARD therapies were enrolled in a 12-week open-label study with an optional extension phase. […] Patients with previous biologic treatment must have received the last administration at least 8 weeks before enrollment Routine safety and efficacy data were collected at weeks 2, 6, and 12, and every 8 weeks in the extension phase. Efficacy parameters included ACR20, ACR50, ACR70, EULAR Response, HAQ, tender and swollen joint count (TJC28/SJC28), and DAS28. […] For this interim analysis, efficacy outcomes were evaluated after 12 weeks of therapy per the number and type of prior biologics used: None, any (ETA, INF, anakinra), ETA only, INF only, or ETA and INF but not anakinra.
Patients with long-standing, moderate to severe RA were enrolled in Study A at 450 sites in 12 different countries. The study design for Study A is outlined in FIG. 21. […] Previous treatment with other biologics was allowed up to 8 weeks before enrollment. Patients met the following inclusion criteria: Age ≧18 years; RA (defined by American College of Rheumatology criteria) for ≧3 months; active, moderate to severe RA (Disease Activity Score (DAS28)≧3.2); unsatisfactory response or intolerance to at least one prior DMARD, including biologics. Efficacy assessments were performed at weeks 0 (baseline), 2, 6, and 12. […]

[1] = Week 12, No prior ETA and/or INF (n=5711)
[2] = Week 12, Prior ETA and/or INF (n=899)
[3] = Week 12, concomitant Cq/Hcq + mtx (n=153)
[4] = Week 12, concomitant LEF only (n=557)
[5] = Week 12, concomitant MTX + LEF (n=123)
[6] = Week 12, concomitant MTX only (n=1561)
[7] = Week 12, concomitant QC/HQC (n=85)
[8] = Week 12, concomitant SSZ only (n=89)
[9] = Wk 12, concomitant MTX Im 15 mg (N=76), no other DMARD
[10] = Wk 12, concomitant MTX Iv 15 mg (N=23), no other DMARD
[11] = Wk 12, concomitant MTX Sc 15 mg (N=37), no other DMARD
[12] = Wk 12, concomitant MTX oral 15 mg (N=405), no other DMARD
[13] = Wk 12, concomitant MTX oral ≦7.5 (N=127), no other DMARD
[14] = Wk 12, concomitant MTX oral ≧20 mg (N=216), no other DMARD
[15] = week 12, concomitant hydroxychloroquine exclusively
[16] = week 12, concomitant leflunomide exclusively
[17] = week 12, concomitant mtx exclusively
[18] = week 12, concomitant sulfasalazine exclusively
[19] = week 12, prior biologic: ETA + INF

## adalimumab: human anti-TNF mAb (HUMIRA, Abbott Laboratories), described in U.S. Pat. No. 6,090,382 as D2E7
12 weeks, N=2008 analysis
  Good EULAR response: 34%
  Moderate EULAR response: 82%
12 weeks, no prior response to ETA and INF
  Moderate EULAR response: 50%
Week 12
  Good EULAR response (%): 32%
  Moderate EULAR response (%): 81%
[1]
  Good EULAR: 35 % of patients
  Moderate EULAR: 84 % of patients
[2]
  Good EULAR: 23 % of patients
  Moderate EULAR: 76 % of patients
[3]
  Good EULAR: 40 % of patients
  Moderate EULAR: 88 % of patients
[4]
  Good EULAR response: 31%
  Moderate EULAR response: 79%
[5]
  Good EULAR response: 29%
  Moderate EULAR response: 86%
Week 12, concomitant MTX + SSZ
  Good EULAR response: 41%
  Moderate EULAR response: 89%
[6]
  Good EULAR response: 39%
  Moderate EULAR response: 84%
[7]
  Good EULAR response: 25%
  Moderate EULAR response: 85%
[8]
  Good EULAR response: 39%
  Moderate EULAR response: 75%
Week 28
  Good EULAR response (%): 37%
  Moderate EULAR response (%): 81%
Week 36
  Good EULAR response (%): 37%
  Moderate EULAR response (%): 82%
Week 52
  Good EULAR response (%): 38%
  Moderate EULAR response (%): 82%
[9]
  Good EULAR response: 38%
  Moderate EULAR response: 80%
[10]
  Good EULAR response: 41%
  Moderate EULAR response: 86%
[11]
  Good EULAR response: 25%
  Moderate EULAR response: 86%
[12]
  Good EULAR response: 39%
  Moderate EULAR response: 86%
[13]
  Good EULAR response: 36%
  Moderate EULAR response: 84%
[14]
  Good EULAR response: 50%
  Moderate EULAR response: 89%
Week 2, French patients
  at least a Moderate EULAR response: 64%
Week 12, 1 prior biologic
  Good EULAR response: 25%
  Moderate EULAR response: 78%
Week 12, 2 prior biologics
  Good EULAR response: 11%
  Moderate EULAR response: 76%
Week 12, 3 prior biologics
  Good EULAR response: 8%
  Moderate EULAR response: 75%
Week 12, French patients
  at least a Moderate EULAR response: 80%
Week 12, all patients
  Good EULAR response: 34%
  Moderate EULAR response: 83%
[15]
  Good EULAR: 25 % of patients
  Moderate EULAR: 75 % of patients
[16]
  Good EULAR: 31 % of patients
  Moderate EULAR: 79 % of patients
[17]
  Good EULAR: 39 % of patients
  Moderate EULAR: 84 % of patients
[18]
  Good EULAR: 31 % of patients
  Moderate EULAR: 79 % of patients
Week 12, no prior biologic
  Good EULAR response: 34%
  Moderate EULAR response: 81%
Week 12, prior anakinra
  Good EULAR: 36 % of patients
  Moderate EULAR: 75 % of patients
Week 12, prior biologic (any)
  Good EULAR: 22 % of patients
  Moderate EULAR: 77 % of patients
Week 12, prior etanercept only
  Good EULAR response: 25% and 24%
  Moderate EULAR response: 76%
Week 12, prior infliximab only
  Good EULAR response: 22%
  Moderate EULAR response: 80%
Week 12, prior biologic: Any
  Good EULAR: 23 % of patients
  Moderate EULAR: 75 % of patients
Week 12, prior biologic: ETA
  Good EULAR: 21 % of patients
  Moderate EULAR: 74 % of patients
[19]
  Good EULAR: 12 % of patients
  Moderate EULAR: 61 % of patients
Week 12, prior biologic: INF
  Good EULAR: 25 % of patients
  Moderate EULAR: 78 % of patients
Week 12, prior biologic: None
  Good EULAR: 39 % of patients
  Moderate EULAR: 82 % of patients
